In publication PMC3100252, “A theoretical entropy score as a single value to express inhibitor selectivity” (BMC Bioinformatics, 2011):
Read-outs that look alike come from different tables or passages of the source.

Assays:
[1] = test system: 290 kinases (excluding mutants); assay type: binding; conditions: for Ka-Gini: Gini score calculated directly on Kas of the Ambit dataset (Kds of ref 5); for entropies (selectivity entropy, Ssel): calculated from Kds of the Ambit dataset (ref 5); for entropies (selectivity entropy, Ssel) / number of kinases inhibited below 3 μM: 290 kinases; for number of kinases inhibited below 3 μM: Ambit profile; for selectivity rank by Ka-Gini / selectivity rank by Pmax / selectivity rank by selectivity entropy: rank among 38 inhibitors, Ambit dataset
Excerpt: Having defined the entropy, we next investigated its performance relative to the most widely-used methods, on a public profiling dataset of 38 inhibitors on 290 non-mutant kinases (Table 1 and Additional file 1). […] To this we added a Ka-Gini value and the selectivity entropy. The Ka-Gini is a Gini score directly calculated on Kas, without reverting to %-inhibition values (see below). […] In addition, to get an overview of the profiling raw data, we appended an activity-based heat map (Uitdehaag_S1).
(§1) It is worth to note that the partition coefficient is the same as ϕl in our entropy equation (eq. 2).
The Gini score was calculated from data on %-inhibition. […] In addition, to work more directly with Kds, we also introduce a Ka-Gini score, in which association constants are used for rank-ordering the kinase profile. […] All calculations were done in Microsoft Excel. […]

222 human kinases = assay: Millipore kinase profiling (radioactive filter binding activity assay at [ATP] = KM,ATP) and selectivity metrics calculated from it; assay type: biochemical; parameters: selectivity score: scale not given here; conditions: for Ka-Gini score / Pmax / S10x / selectivity score: calculated from Millipore activity data; for selectivity entropy: calculated from Millipore activity data (pEC50), [ATP] = KM,ATP
Excerpt: As a next step we selected 16 compounds from the public profile (Ambit), and measured activity data on these using a different profiling service (Millipore, data available as Additional file 2). […] Also for these new data, we calculated the selectivity metrics (Uitdehaag_S2). In the ideal case, the selectivity values are similar irrespective of profiling technology (in the same way that a Kd value is ideally independent of laboratory and assay format). The data of both methods are plotted in Figure 2.
as §1
The Gini score was calculated from data on %-inhibition. […] In addition, to work more directly with Kds, we also introduce a Ka-Gini score, in which association constants are used for rank-ordering the kinase profile. […] All calculations were done in Microsoft Excel.
For comparing profiles across methods (Figure 2), we selected 16 kinase inhibitors of the Ambit profile (Table 2) and submitted these to the kinase profiling service from Millipore (http://www.millipore.com/drugdiscovery/svp3/kpservices, data available as Additional file 2). Both profiling methods are described earlier and differ (among other variations) in the following way: Ambit uses a competitive binding setup in absence of ATP on kinases from T7 or HEK293 expression systems. Millipore uses a radioactive filter binding activity assay, with kinases purified from Escherichia coli or baculovirus expression systems.

[2] = test system: 290 kinases (excluding mutants); conditions: cited from earlier work; for Gini: 38 inhibitors on 290 non-mutant kinases; for S10x: fraction of kinases hit at 10 times the Kd of the target
PDGFRβ = conditions: Ambit profiling raw data; cited from earlier work
[3] = Ambit dataset, values taken from earlier work
[4] = Ambit dataset, fraction of kinases hit below 3 μM, values taken from earlier work

SMILES | Ka-Gini [1] | entropies (selectivity entropy, Ssel) [1] | Ka-Gini score (222 human kinases) | Pmax (222 human kinases) | S10x (222 human kinases) | selectivity score (222 human kinases) | selectivity entropy (222 human kinases) | Gini [2, 3] | S10x [2, 3] | S3uM (selectivity score S(3 μM)) [2, 4] | Pmax (partition index) [2, 3] | S3uM (selectivity score S(3 μM)) [2] | number of kinases inhibited below 3 μM [1] | selectivity rank by Ka-Gini [1] | selectivity rank by Pmax [1] | selectivity rank by selectivity entropy [1] | potencies on the 4 kinases hit with roughly equal potencies ([2]; Ambit profile, 4 kinases not named) | IC50 ([2]; Ambit profile, four kinases not named, read-out: IC50s on the four kinases hit with very similar IC50s) | Kd (PDGFRβ)
Cc1ccc(F)c(NC(=O)Nc2ccc(-c3cccc4[nH]nc(N)c34)cc2)c1 [ABT-869, linifanib] | 0.98 | 1.93 | 0.968 | 0.132 | 0.025 | 0.235 | 2.834 | 0.82 | 0.01 | 0.16 | 0.32 |  |  |  |  |  |  |  | 
CCN(CCO)CCCOc1ccc2c(Nc3cc(CC(=O)Nc4cccc(F)c4)[nH]n3)ncnc2c1 [AZD1152HQPA] | 0.98 | 1.91 | 0.993 | 0.603 | 0.007 | 0.041 | 1.366 | 0.78 | 0.02 | 0.10 | 0.34 |  |  |  |  |  |  |  | 
Cc1ccc(-n2nc(C(C)(C)C)cc2NC(=O)Nc2ccc(OCCN3CCOCC3)c3ccccc23)cc1 [BIRB-796, doramapimod] | 0.99 |  | 0.984 | 0.440 | 0.011 |  |  | 0.81 |  |  |  |  |  |  |  |  |  |  | 
Cn1c(Nc2ccc(C(F)(F)F)cc2)nc2cc(Oc3ccnc(-c4ncc(C(F)(F)F)[nH]4)c3)ccc21 [CHIR265] | 0.96 |  | 0.982 | 0.304 | 0.014 |  |  | 0.74 |  |  |  |  |  |  |  |  |  |  | 
Cc1nc(Nc2ncc(C(=O)Nc3c(C)cccc3Cl)s2)cc(N2CCN(CCO)CC2)n1 [Dasatinib, dasatinib] | 0.93 |  | 0.943 | 0.041 | 0.070 |  |  | 0.79 |  |  |  |  |  |  |  |  |  |  | 
COc1ccc(COc2ccc(Cc3cnc(N)nc3N)cc2OC)cc1 [GW-2580] | 0.99 | 0.26 |  |  |  |  |  | 0.54 | 0.00 | 0.01 | 0.92 |  |  |  |  |  |  |  | 
Cc1ccc(Nc2nccc(N(C)c3ccc4c(C)n(C)nc4c3)n2)cc1S(N)(=O)=O [GW-786034] | 0.97 | 2.06 |  |  |  |  |  | 0.80 | 0.02 | 0.21 | 0.33 |  |  |  |  |  |  |  | 
Nc1nc(Nc2ccc(S(N)(=O)=O)cc2)nn1C(=O)c1c(F)cccc1F [JNJ-7706621] | 0.87 | 3.73 |  |  |  |  |  | 0.74 | 0.08 |  | 0.10 | 0.37 |  |  |  |  |  |  | 
CN(C)C[C@@H]1CCn2cc(c3ccccc32)C2=C(C(=O)NC2=O)c2cn(c3ccccc23)CCO1 [LY-333531] | 0.98 |  |  |  |  |  |  | 0.76 |  |  |  |  |  |  |  |  |  |  | 
CS(=O)(=O)CCNCc1ccc(-c2ccc3ncnc(Nc4ccc(OCc5cccc(F)c5)c(Cl)c4)c3c2)o1 [Lapatinib] | 0.99 |  |  |  |  |  |  | 0.57 |  |  |  |  |  |  |  |  |  |  | 
COc1cc2c(N3CCN(C(=O)Nc4ccc(OC(C)C)cc4)CC3)ncnc2cc1OCCCN1CCCCC1 [MLN-518, tandutinib] | 0.98 | 1.58 | 0.993 | 0.621 | 0.005 | 0.032 | 1.300 | 0.74 | 0.01 |  | 0.26 | 0.06 | 10 kinases | 14 | 26 | 15 | 2 to 10 nM |  | 
O=C(O)c1ccc(Nc2ncc3c(n2)-c2ccc(Cl)cc2C(c2c(F)cccc2F)=NC3)cc1 [MLN-8054] | 0.97 | 1.95 | 0.980 | 0.617 | 0.002 | 0.154 | 1.903 | 0.75 | 0.01 | 0.13 | 0.36 |  |  |  |  |  |  |  | 
Oc1cccc(-c2nc(N3CCOCC3)c3oc4ncccc4c3n2)c1 [PI-103] | 0.99 | 0.05 | 0.995 | 0.561 | 0.005 | 0.014 | 0.876 | 0.41 | 0.00 |  | 0.97 |  |  |  |  |  |  |  | 
CO[C@@H]1[C@H](N(C)C(=O)c2ccccc2)C[C@H]2O[C@]1(C)n1c3ccccc3c3c4c(c5c6ccccc6n2c5c31)C(=O)NC4 [PKC-412] | 0.88 |  |  |  |  |  |  | 0.71 |  |  |  |  |  |  |  |  |  |  | 
Oc1ccc(-c2nc(-c3ccncc3)c(-c3ccc(F)cc3)[nH]2)cc1 [SB-202190] | 0.97 | 2.08 |  |  |  |  |  | 0.76 | 0.02 |  | 0.35 | 0.09 |  |  |  |  |  |  | 
NC(=O)c1ccc(-c2nc(-c3ccc4c(c3)OCO4)c(-c3ccccn3)[nH]2)cc1 [SB-431542] | 0.98 | 1.56 |  |  |  |  |  | 0.42 | 0.01 | 0.02 | 0.14 |  | 5 kinases | 15 | 31 | 14 |  | 100 to 300 nM | 
Cc1[nH]c(/C=C2\C(=O)Nc3ccc(F)cc32)c(C)c1C(=O)NC[C@H](O)CN1CCOCC1 [SU-14813] | 0.97 | 2.04 |  |  |  |  |  | 0.70 | 0.02 | 0.51 | 0.18 |  |  |  |  |  |  |  | 0.29 nM
CNC(=O)c1cc(Oc2ccc(NC(=O)Nc3ccc(Cl)c(C(F)(F)F)c3)cc2)ccn1 [Sorafenib, sorafenib] | 0.97 |  | 0.975 | 0.149 | 0.029 |  |  | 0.82 | 0.10 |  |  |  |  |  |  |  |  |  | 
CCN(CC)CCNC(=O)c1c(C)[nH]c(/C=C2\C(=O)Nc3ccc(F)cc32)c1C [Sunitinib, sunitinib] |  |  |  | 0.107 | 0.038 |  |  | 0.67 | 0.02 |  |  |  | 181 kinases |  |  |  |  |  | 
Cc1cc(Nc2cc(N3CCN(C)CC3)nc(Sc3ccc(NC(=O)C4CC4)cc3)n2)[nH]n1 [VX-680, tozasertib] | 0.93 | 3.09 | 0.972 | 0.278 | 0.020 | 0.199 | 2.625 | 0.76 | 0.03 | 0.38 | 0.15 |  |  |  |  |  |  |  | 
O=c1ncn2nc(Sc3ccc(F)cc3F)ccc2c1-c1c(Cl)cccc1Cl [VX-745] | 0.99 | 0.28 | 0.997 | 0.820 | 0.005 |  | 0.590 | 0.51 | 0.00 | 0.03 | 0.92 |  |  |  |  |  |  |  | 
COc1cc2c(Nc3ccc(Br)cc3F)ncnc2cc1OCC1CCN(C)CC1 [ZD-6474, vandetanib] | 0.94 |  | 0.963 | 0.117 | 0.041 |  |  | 0.79 | 0.26 |  |  |  | 79 kinases |  |  |  |  |  | 
